Assay in all cases: inhibition of tumour cell growth, NCI panel, 48 h
Test [1] deals with SK-OV-3.
Test [2] concerns NCI-H460.
Test [3] has as its system SF-268.
Test [4] has as its system 786-0.
The subject of test [5] is TK-10.
The subject of test [6] is SR.
Test [7] relates to RPMI-8226.
For test [8], the system named is HCT-116.
The subject of test [9] is HCT-15.
Test [10] deals with OVCAR-4.
In test [11] the test system is KM-20L2.
Test [12] concerns U-251.
The subject of test [13] is IGROV-1.
For test [14], the system named is UO-31.
In test [15] the test system is NCI-H23.
Test [16] relates to HOP-92.
For test [17], the system named is BT-549.
Test [18] has as its system MDA-N.
The test system of test [19] is T47D.
Test [20] relates to MDA-MB-435.

The structures appear in SMILES notation.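 Where inhibition never reached the appropriate level, the endpoint shown equals the highest concentration tested. Otherwise, values were interpolated linearly from a five-concentration, 48-hour dose response in 96-well plates. Here, GI50 denotes the concentration required for 50% inhibition of growth.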 The source made the active and inactive calls. Cut-off read from the data, not from the text of the source: active = GI50 up to about 1.1 µM and inactive = higher. Bounds are passed on as bounds.

Take `CC1(O)CCC2(C#N)CCC1C2O` (centres undefined): the GI50 was > 100 µM (inactive) in test [1]; 43.9 µM (inactive) in [2]; > 100 µM (inactive) in test [3]; > 100 µM (inactive) in test [4]; > 100 µM (inactive) in test [5]; 20.3 µM (inactive) in [6]. For the same compound, the GI50 is 26.5 µM (inactive) in test [7]; 43.5 µM (inactive) in test [8]; above 100 µM in [9]; > 100 µM (inactive) in test [10]; 62.2 µM (inactive) in test [11]; > 100 µM (inactive) in [12]. Moreover, the GI50 in [13] and in [14] was > 100 µM (inactive) throughout.
For `CCCCCNC(=O)c1c(O)[nH]c(=S)[nH]c1=O`, the GI50 in test [1], in test [15], in [2], in [16], in [3] and in test [4] was > 100 µM (inactive) each time. The GI50 in test [5] was > 100 µM (inactive); in test [6] it was > 100 µM (inactive); in test [7], > 100 µM (inactive); in test [8], > 100 µM (inactive); in test [9], 90.6 µM; in test [10], 41.6 µM (inactive). In addition, the GI50 was > 100 µM (inactive) in [11], 66.8 µM (inactive) in [12] and > 100 µM (inactive) in test [13].
In the case of `CC(=O)NC(CCCNC(=O)OCc1ccccc1)C(=O)O` (centres undefined), the GI50 in test [1], in [15], in test [2], in test [16], in test [3] and in [4] was > 100 µM (inactive) each time. Also, the GI50 is > 100 µM (inactive) in [5]; > 100 µM (inactive) in [7]; > 100 µM (inactive) in test [8]; above 100 µM in test [9]; 36.1 µM (inactive) in [10]; > 100 µM (inactive) in [11]. In addition, the GI50 in [12], in test [13] and in [14] was > 100 µM (inactive) throughout.
For `O=C(CSc1nnc(-c2ccc(/N=C\c3ccc(Cl)cc3)cc2)o1)Nc1ccccc1`, the GI50 is > 100 µM (inactive) in test [1]; 50.2 µM (inactive) in test [15]; > 100 µM (inactive) in test [2]; 35.7 µM (inactive) in test [3]; 21.5 µM (inactive) in test [4]; > 100 µM (inactive) in test [5]. Besides, the GI50 in test [6] is 33.1 µM (inactive); in test [7], 31.6 µM (inactive); in [8] it was 16.6 µM (inactive); in test [9] it was 68.2 µM; in [10] it was > 100 µM (inactive); in [11], > 100 µM (inactive). The GI50 was 52 µM (inactive) in test [12] and 98.4 µM (inactive) in test [14].
On to `N#C/C(=C\c1ccc(C(O)P(=O)(O)O)cc1)C(N)=O` (centres undefined), for which the GI50 is > 100 µM (inactive) in test [1]; > 100 µM (inactive) in test [15]; 6.44 µM (inactive) in [2]; > 100 µM (inactive) in test [16]; > 100 µM (inactive) in [3]; 29.8 µM (inactive) in test [4]. In addition, the GI50 is > 100 µM (inactive) in test [5]; > 100 µM (inactive) in test [7]; 76.9 µM (inactive) in test [8]; above 100 µM in test [9]; > 100 µM (inactive) in test [10]; > 100 µM (inactive) in [11]. The GI50 in test [12] is 60.5 µM (inactive); in test [13], > 100 µM (inactive); in test [14], > 100 µM (inactive).
Take `Cc1c(N2CCN(C)CC2)nc2ccc(Cl)cc2c1-c1ccccc1`: the GI50 is 47.4 µM (inactive) in test [1]; 23.1 µM (inactive) in test [15]; 17.5 µM (inactive) in test [2]; 29.4 µM (inactive) in [3]; 14.4 µM (inactive) in test [4]; > 10 µM (inactive) in test [5]. In addition, the GI50 in [6] is 17.9 µM (inactive); in test [7], 18.9 µM (inactive); in test [8], 17.8 µM (inactive); in test [9], 18.9 µM; in [10], 17.7 µM (inactive); in [11], 15.7 µM (inactive). For the same compound, the values for the GI50 in test [12] and in test [14] were 17.3 µM (inactive) and 16.5 µM (inactive), respectively.
As to `Cc1c(/C=N/NC(=O)c2ccccc2O)c(=O)n(-c2ccccc2)n1C`, the GI50 in [1] was > 100 µM (inactive); in test [15], > 100 µM (inactive); in test [2] it was 47.1 µM (inactive); in test [16] it was > 100 µM (inactive); in test [3] it was > 100 µM (inactive); in test [4], > 100 µM (inactive). The GI50 in test [5] is > 100 µM (inactive); in [6], 45.8 µM (inactive); in test [7], 48.2 µM (inactive); in test [8] it was 64.9 µM (inactive); in [9], 29.2 µM; in [10], > 100 µM (inactive). Also, the GI50 was > 100 µM (inactive) in [11], > 100 µM (inactive) in test [12], > 100 µM (inactive) in [13] and 54.7 µM (inactive) in [14].
Take `COC(=O)C1C(C(=O)OC)C1(Br)CBr` (centres undefined): the GI50 in test [17] is 33.1 µM (inactive); in [1], > 100 µM (inactive); in [15] it was 70.1 µM (inactive); in test [2], > 100 µM (inactive); in test [18] it was 63.7 µM (inactive); in test [16] it was 22.9 µM (inactive). In addition, the GI50 is 28.9 µM (inactive) in test [3]; 20.4 µM (inactive) in test [4]; > 100 µM (inactive) in test [5]; 17.9 µM (inactive) in [6]; 16.5 µM (inactive) in [7]; 23.2 µM (inactive) in test [19]. Also, the GI50 was 39.3 µM (inactive) in [8]; 17.9 µM in [9]; 39.7 µM (inactive) in test [10]; > 100 µM (inactive) in test [12]; 30.5 µM (inactive) in [13]; 60.5 µM (inactive) in [20]. Besides, in test [14], the GI50 is 18.4 µM (inactive).
`Cc1ccc(S(=O)(=O)C2=Cc3ccc(C(F)(F)F)cc3C2(O)c2cccc(C(F)(F)F)c2)cc1` (centres undefined): the GI50 was 2.06 µM (inactive) in test [17]; 10.2 µM (inactive) in test [1]; 2.01 µM (inactive) in test [15]; 2.33 µM (inactive) in [2]; 2.38 µM (inactive) in test [18]; 1.88 µM (inactive) in [16]. Also, the GI50 in test [3] is 2.39 µM (inactive); in test [4], 1.93 µM (inactive); in test [5], 2.47 µM (inactive); in [6], 2.43 µM (inactive); in [7] it was 2.65 µM (inactive); in test [19] it was 3.1 µM (inactive). Further, the GI50 in test [8] was 1.58 µM (inactive); in test [9], 1.95 µM; in [10], 1.85 µM (inactive); in [12], 1.87 µM (inactive); in test [13], 2.64 µM (inactive); in [20], 2.05 µM (inactive). Besides, the GI50 in test [14] was 2.25 µM (inactive).
`O=c1cc(O)ccn1C1C=C(CO)C(O)C1O` (centres undefined): the GI50 in test [1] was > 625 µM (inactive); in test [2], 131 µM (inactive); in test [16] it was 192 µM (inactive); in [3], > 625 µM (inactive); in test [7], 411 µM (inactive); in test [8] it was 263 µM (inactive). Moreover, the GI50 in test [9] is above 625 µM; in test [10], > 625 µM (inactive); in [11] it was > 625 µM (inactive); in test [12], > 625 µM (inactive); in test [13], > 625 µM (inactive); in [14], > 625 µM (inactive).
As for `C[C@H]1COC2(c3ccccc3)CCC(=O)N12` (some centres undefined), the GI50 in test [15], in [2], in test [16], in test [3], in [4] and in [5] was > 100 µM (inactive) each time. The GI50 is > 100 µM (inactive) in test [6]; > 100 µM (inactive) in [7]; > 100 µM (inactive) in [8]; above 100 µM in test [9]; > 100 µM (inactive) in test [10]; > 100 µM (inactive) in test [11]. Further, the GI50 in test [12] and in [13] was > 100 µM (inactive) throughout.
With `COc1cc(-c2ccc(/N=N/c3c(S(=O)(=O)O)cc4cc(S(=O)(=O)O)cc(N)c4c3O)c(OC)c2)ccc1/N=N/c1c(S(=O)(=O)O)cc2cc(S(=O)(=O)O)cc(N)c2c1O`, the GI50 was > 100 µM (inactive) in [1]; > 100 µM (inactive) in [15]; > 100 µM (inactive) in test [2]; 34 µM (inactive) in test [16]; > 100 µM (inactive) in test [3]; > 100 µM (inactive) in test [7]. For the same compound, the GI50 in [8] is > 100 µM (inactive); in [9], 59.6 µM; in test [10], > 57 µM (inactive); in test [11], 35 µM (inactive); in test [12], > 100 µM (inactive); in test [13], > 100 µM (inactive). The GI50 in test [14] is > 80.4 µM (inactive).
In the case of `COC(=O)C1=COC2OC3CC1C2C(C)O3` (centres undefined), the GI50 in test [17], in [1], in test [15], in [2], in [18] and in test [16] was > 100 µM (inactive) in each case. Also, the GI50 in test [3], in test [4], in test [5], in test [6], in [7] and in test [19] was > 100 µM (inactive) each time. Besides, the GI50 in [8] was > 100 µM (inactive); in test [9] it was above 100 µM; in test [10], > 100 µM (inactive); in [12], > 100 µM (inactive); in test [13], > 100 µM (inactive); in [20], > 100 µM (inactive). Besides, the GI50 in test [14] is > 100 µM (inactive).

For the origin of these results see ChEMBL document CHEMBL1201862, “PubChem BioAssay data set” (2004).
